Like-named read-outs stand apart in the source and are kept apart here. Starred links: 1 amine or outer side, 2 acyl side, 3 side chain; linkers in the order of their positions; H or OH if unused. Non-standard residues stand in square brackets, D forms with d. Residues, ends and D or L forms follow the SMILES beside them. AMPB = O=C(c1ccc(N=Nc2ccc(CN[*:1])cc2)cc1)[*:2]; Ahx = NCCCCCC(=O)O; βAla = NCCC(=O)O
Legend:
[1] = Proliferation / cell viability assay (CellTiter-Glo); assay type: cell-based, mouse; settings: trans isomer, 2.5 μM concentration, 96 h; read-out: viable cells
Experimental: We initially studied the cellular uptake and cell viability of our compounds in murine MLL-AF9-transduced mouse bone marrow cells (Fig. 5). In line with our expectations, peptidomimetics 16 and 17 that contained peptide 7 within their sequence are the ones that inhibited the cell proliferation of leukemia. […] Thus, while in the case of the trans isomer of peptidomimetic 16 we already determined less than 50% of viable cells at 2.5 μM concentration, with the WIN-containing conjugates 20 and 21 we measured 87% and 96% of viable cells at 50 μM concentration, respectively.
(§1) We then examined the potential of 16 and 17 to control externally the cellular response in proliferation assays. Thus, both isomers of both peptidomimetics were incubated at different concentrations for four days. After two days of incubation, the cells containing the cis isomers were irradiated at 430 nm for 90 seconds in a single isomerization cycle with a custom-made 6-well plate LED array.
MLL-AF9-transduced mouse bone marrow was cultured in IMDM medium + 15% FBS and supplemented with 10 ng/mL interleukin-3 (IL-3) at each passage, every other day.
DMSO) isomers, of peptides 7, 16, 17, as well as the peptides 18 and 19 were diluted from stock to culture media containing a 0.1% DMSO final concentration. For viability assays, […]
72 h and DMSO as control . For the cis-trans group, after 48 h treatment with cis peptides, the plate was irradiated at […] for 90 sec and continued to culture for 2 days in the dark.
Viability was determined using the CellTiter-Glo Kit (Promega) according to the a a ’ d . was monitored on a Molecular Devices plate reader.

[2] = Stability against GSH reduction; assay type: physicochemical; settings: 10 mM GSH, four days, kept in the dark
Experimental: as §1
H-bond cut off < 3.5 Å, Van der Waals: […]. N 3.81
Evaluation of Stability against GSH-reduction of Peptides
To test the stability of the AMPB-containing peptides 16 and 17 against reduction by glutathione (GSH), the peptides were incubated with GSH for 4 days.
Figure S72. Left: HPLC chromatograms of peptides, incubated with 10 mM GSH, recorded after different time periods. Left: peptide 16. Right: peptide 17. […]
peptides 16 and 17 (10 μM) in 0.1 M phosphate buffer pH = 7 were mixed giving final concentrations of 10 mM of GSH and 9.6 μM of the peptides, respectively. After different time periods, HPLC chromatograms of these mixtures were recorded (gradient: 5-40% B) (Figure […]
In Vitro Methyl Transferase Assay with MLL1 Core Complex
Full length constructs of both, RbBP5 (residues 1−538) and Ash2L (residues 1−635), were used for expression. […] MLL1, WDR5, RbBP5, and ASH2L were expressed as His-SUMO fusions from the pET28A-SUMO vector in BL21 DE3 pLyss codon (+) cells at 16 °C overnight. […]

WDR5Δ23 [3] = target: T1, WDR5Δ23 (Homo sapiens, UniProt P61964); assay: Fluorescence polarization (FP)-based competitive binding assay
T1 construct: His6-SUMO (N, cleaved yes); made in house; host or cells: E. coli DH5α (so in the source)

[4] = system: Deptor gene (MLL1 target gene); assay: Real-time PCR of Deptor mRNA expression; assay type: cell-based, mouse; settings: 10 μM, 96 h, RT-PCR, standardized to GAPDH, vs Mock
From the text: Finally, we tested whether our probe acts as an optoepi-genetic inhibitor and controls expression of MLL1 target genes. We used the Deptor gene as a reporter, given its importance in hematopoiesis and leukemogenesis,[51],[52] as well as significant regulation by MLL1 inhibition.[53] To this end, we examined Deptor expression by real-time PCR (RT-PCR). […] Of note, a small but significant (p = 0.008) difference between cis and trans isomers was observed. […] There is no statistically significant difference between cis isomer of 17 and the control.
Fig. 8 Relative Deptor mRNA expression levels in murine MLL-AF9-transduced mouse bone marrow cells after 96 h of incubation at 10 μM; they were analysed by RT-PCR and standardized to the endogenous GAPDH control. The significance is corroborated by the p-value.
Real Time Quantitative PCR Analysis of Deptor Gene
Murine MLL1-AF9 transformed bone marrow cells were obtained by transducing normal murine bone marrow cells with MLL1-AF9 oncogene according to the procedures described […]
100 mM stock) isomers, of peptides 7, 16, 17, as well as the peptides 18 and 19 were […]
The transformed cells were treated with different concentrations of the respective peptide (1.0, 5.0, 10 μM) and Mock (0.1% DMSO), giving a final concentration of 0.1% DMSO in all the samples. […] Relative quantification of each gene transcript was carried out as described previously.[28] […]

[5] = target: MLL1 core complex (MLL1, WDR5, RbBP5, and ASH2L) (Homo sapiens, UniProt P61964); settings: cis vs trans
Experimental: To test this, we studied the inhibition of MLL1 H3K4 methyltransferase activity through the previously reported in vitro HMT assay using the MLL1 core complex (i.e. MLL1, WDR5, RbBP5, and ASH2L) and the H3 20mer peptide as substrate.[17]
In Vitro Histone Methyltransferase (HMT) Assay
The HMT assay was performed, as previously described[25] with slight modifications, in 50 mM Tris pH 8.0, 50 mM NaCl, 1.0 mM DTT, 5 mM MgCl2 at room temperature. Each reaction contained 1.5 μM of the cofactor 3H-S-adenosylmethionine (Perkin-Elmer). H31-21 peptide was used as the substrate at 250 μM. […] Reactions were initiated by addition of the H3/SAM and allowed to proceed for 60 min before preparing scintillation counting. To count samples, reactions were spotted on separate squares of P81 filter paper (Millipore) and precipitated by submerging in freshly prepared 50 mM sodium bicarbonate buffer pH = 9.0. After washing and drying, the samples were vortexed in Ultima Gold scintillation fluid and counted.

WDR5Δ23 [6] = target: T1, WDR5Δ23; design: method as in PMID 20575550; settings: interaction with WDR5; cited from earlier work
[7] = non-irradiated peptide (trans isomer), 72 nM WDR5Δ23, 20 nM tracer 22, read-out: IC50, non-irradiated (trans)
[8] = non-irradiated peptide (trans isomer), 72 nM WDR5Δ23, 20 nM tracer 22, read-out: Ki, non-irradiation (trans)

Compound	stability of cis isomer against glutathione [2]	IC50 (WDR5Δ23 [3]; [7]) [nM]	Ki (WDR5Δ23 [3]; [8]) [nM]	Deptor mRNA expression (in words) [4]	further results
CC(C)C[C@H](NC(=O)[C@H](Cc1c[nH]cn1)NC(=O)[C@@H](NC(=O)c1ccc(N=Nc2ccc(CNC(=O)[C@H](C)NC(=O)[C@H](CCCNC(=N)N)NC(=O)[C@H](C)NC(=O)[C@@H](N)CO)cc2)cc1)C(C)C)C(=O)N[C@@H](CCCNC(=N)N)C(=O)N[C@@H](CCCCN)C(=O)N[C@@H](CO)C(=O)N[C@@H](CCCNC(=N)N)C(=O)N[C@@H](CCCNC(=N)N)C(=O)N[C@@H](CCCNC(=N)N)C(=O)N[C@@H](CCCNC(=N)N)C(=O)N[C@@H](CCCNC(=N)N)C(=O)N[C@@H](CCCNC(=N)N)C(=O)N[C@@H](CCCNC(=N)N)C(=O)N[C@@H](CCCNC(=N)N)C(N)=O [peptide 16, H2N-SARA-AMPB-VHLRKS-R8-NH2] (H-SARA[AMPB]VHLRKSRRRRRRRR-NH2)	suitable cis/trans ratio	135 ± 5	1.18 ± 0.095	–	viability at 2.5 µM [1]: < 50%
CC(C)C[C@H](NC(=O)[C@H](Cc1c[nH]cn1)NC(=O)[C@@H](NC(=O)c1ccc(N=Nc2ccc(CNC(=O)[C@H](C)NC(=O)[C@H](CCCNC(=N)N)NC(=O)[C@H](C)NC(=O)[C@@H](N)CO)cc2)cc1)C(C)C)C(=O)N[C@@H](CCCNC(=N)N)C(=O)N[C@@H](CCCCN)C(=O)N[C@@H](CO)C(=O)N[C@@H](CCCNC(=N)N)C(=O)NCCCCCC(=O)N[C@@H](CCCNC(=N)N)C(=O)N[C@@H](CCCNC(=N)N)C(=O)NCCCCCC(=O)N[C@@H](CCCNC(=N)N)C(=O)N[C@@H](CCCNC(=N)N)C(=O)NCCCCCC(=O)N[C@@H](CCCNC(=N)N)C(=O)N[C@@H](CCCNC(=N)N)C(=O)NCCCCCC(=O)N[C@@H](CCCNC(=N)N)C(=O)NCCCCCC(=O)NCCC(N)=O [peptide 17, H2N-SARA-AMPB-VHLRKS-(RahxR)4RAhxB-NH2] (H-SARA[AMPB]VHLRKSR[Ahx]RR[Ahx]RR[Ahx]RR[Ahx]R[Ahx][βAla]-NH2)	suitable cis/trans ratio	120 ± 25	0.925 ± 0.39	–	–
N=C(N)NCCC[C@H](NC(=O)[C@H](CCCNC(=N)N)NC(=O)[C@H](CCCNC(=N)N)NC(=O)[C@H](CCCNC(=N)N)NC(=O)[C@H](CCCNC(=N)N)NC(=O)[C@H](CCCNC(=N)N)NC(=O)[C@H](CCCNC(=N)N)NC(=O)[C@@H](N)CCCNC(=N)N)C(N)=O [peptide 18]	–	–	–	not affected	–
N=C(N)NCCC[C@H](NC(=O)CCCCCNC(=O)[C@H](CCCNC(=N)N)NC(=O)[C@H](CCCNC(=N)N)NC(=O)CCCCCNC(=O)[C@H](CCCNC(=N)N)NC(=O)[C@H](CCCNC(=N)N)NC(=O)CCCCCNC(=O)[C@H](CCCNC(=N)N)NC(=O)[C@H](CCCNC(=N)N)NC(=O)CCCCCNC(=O)[C@@H](N)CCCNC(=N)N)C(=O)NCCCCCC(=O)NCCC(N)=O [peptide 19] (H-R[Ahx]RR[Ahx]RR[Ahx]RR[Ahx]R[Ahx][βAla]-NH2)	–	–	–	not affected	–
CC(C)C[C@H](NC(=O)[C@H](Cc1c[nH]cn1)NC(=O)[C@@H](NC(=O)c1ccc(N=Nc2ccc(CNC(=O)[C@H](C)NC(=O)[C@H](CCCNC(=N)N)NC(=O)[C@H](C)NC(=O)[C@@H](N)CO)cc2)cc1)C(C)C)C(=O)N[C@@H](CCCNC(=N)N)C(=O)N[C@@H](CCCCN)C(=O)N[C@@H](CO)C(N)=O [peptide 7, H2N-SARAXVHLRKS-CONH2] (H-SARA[AMPB]VHLRKS-NH2)	–	146 ± 21	1.25 ± 0.36	–	difference in IC50 between both isomers [5]: more than 15 fold; IC50 (WDR5Δ23 [3]; IC50 cis (with 5 nM tracer), cis isomer (366 nm), 20 nM WDR5Δ23, 5 nM tracer 22): 147 ± 14 nM; IC50 (WDR5Δ23 [3]; IC50 trans (with 5 nM tracer), trans isomer, 20 nM WDR5Δ23, 5 nM tracer 22): 57 ± 11 nM; Ki (WDR5Δ23 [3]; Ki cis (with 5 nM tracer), cis isomer (366 nm), 20 nM WDR5Δ23, 5 nM tracer 22): 6.37 ± 1 nM; Ki (WDR5Δ23 [3]; Ki trans (with 5 nM tracer), trans isomer, 20 nM WDR5Δ23, 5 nM tracer 22): 2.03 ± 0.42 nM
Ac-ARAEVHLRKS-NH2 [peptide 2]	–	–	–	–	Ki (WDR5Δ23 [6]): 3 nM

Reference: article PMC5618341, “Controlled inhibition of methyltransferases using photoswitchable peptidomimetics: towards an epigenetic regulation of leukemia” (Chemical Science, 2017)
